[ ]: non-standard residue; d: D form.
Legend:
[1] = system: AP-1 DNA binding complex; experiment: Gel retardation assay with AP-1 probe, nuclear extracts of TNF-α treated HeLa cells; format: cell-based; details: peptide added 30 minutes before TNF-α 5 ng/ml
[2] = system: βTC-3 cells; experiment: IL-1β induced pancreatic β-cell death, peptide treatment, propidium iodide / Hoechst 33342 staining; format: cell-based; details: for long term inhibition of IL-1β induced cell-death: IL-1β 10 ng/ml every two days, 15 days
Procedure: We investigated the effects of the inventive L-TAT-IB(s) peptides on the promotion of β-cell apoptosis elicited by IL-1. βTC-3 cell cultures were incubated for 30 minutes with 1 μM of inventive L-TAT-IB1(s) peptides followed by 10 ng/mL of IL-1. A second addition of peptide (1 μM) was performed 24 hours later. Apoptotic cells were counted after two days of incubation with IL-1 β using propidium iodide (red stained cell are dead cells) and Hoechst 33342 (blue stained cell are cells with intact plasma membrane) nuclear staining.
Long term inhibition of IL-1 induced cells death was examined by treating βTC-3 cells as described above, except that incubation of the cells with the peptides and IL-1 β was sustained for 12 days. Additional peptides (1 μM) were added each day and additional IL-1 β (10 ng/mL) was added every 2 days. […] Taken together, these experiments provide evidence that inventive TAT-IB(s) peptides are biologically active molecules able to prevent the effects of JNK signaling on cell fate.
Inhibition of IL-1 β induced pancreatic β-cell death by the inventive D-TAT-IB1(s) peptide was analyzed. βTC-3 cells were incubated as described above for 30 minutes with one single addition of the indicated peptides (1, μM), then IL-1 (10 ng/ml) was added.
Apoptotic cells were then counted after two days of incubation with IL-1 β by use of Propidium Iodide and Hoechst 33342 nuclear staining. A minimum of 1,000 cells were counted for each experiment. Standard Error of the Means (SEM) are indicated, n=5.
Long term inhibition of IL-1P induced cell-death by the D-TAT-IB1 peptide was also analyzed. βTC-3 cells were incubated as above for 30 minutes with one single addition of the indicated peptides (1 μM), then IL-1 β (10 ng/ml) was added, followed by addition of the cytokine every two days. Apoptotic cells were then counted after 15 days of incubation with IL-1 by use of propidium iodide and Hoechst 33342 nuclear staining. […] A minimum of 1.000 cells were counted for each experiment.

[3] = system: WiDr cells; experiment: Irradiation (30 Gy) induced apoptosis; format: cell-based, human; details: 1 μM added 30 minutes before 30 Gy, analyzed 48 hours later
Procedure: JNK is also activated by ionizing radiation. To determine whether inventive TAT-IB(s) peptides would provide protection against radiation-induced JNK damage, “WiDr” cells were irradiated (30 Gy) in presence or absence of D-TAT, inventive L-TAT-IB1(s) or inventive D-TAT-IB1(s) peptides (1 μM added 30 minutes before irradiation). Control cells (CTRL) were not irradiated. Cells were analyzed 48 hours later by means of PI and Hoechst 3342 staining, as described above. N=3, SEM are indicated.

[4] = system: JNK; details: JBDs; cited from earlier work
[5] = system: βTC-3 cell cultures; format: cell-based
Procedure: The ability of the L- and D-enantiomeric forms of TAT and inventive TAT-IB1(s) peptides (“TAT-IB peptides”) to enter cells was evaluated. L-TAT, D-TAT, inventive L-TAT-IB1(s), and inventive D-TAT-IB1(s) peptides [SEQ ID NOs: 5, 6, 9 and 12, respectively] were labeled by N-terminal addition of a glycine residue conjugated to fluorescein. Labeled peptides (1 μM) were added to βTC-3 cell cultures, which were maintained as described in Example 3. At predetermined times cells were washed with PBS and fixed for five minutes in ice-cold methanol-acetone (1:1) before being examined under a fluorescence microscope. Fluorescein-labeled BSA (1 μM, 12 moles/mole BSA) was used as a control.
Little to no signal was present at 48 hours.
Fluorescent signals from these all-D retro-inverso peptides were still very strong 1 week later, and the signal was only slightly diminished at 2 weeks post treatment.

[6] = Focal cerebral ischaemia, transient MCAO model, infarct volume; format: in vivo, male ICR-CD1 mice
Text: Evaluation of neuroprotection by inventive chimeric peptides after iv administration against focal cerebral ischaemia, in a transient MCAO model (see FIG. 4).
Transient ischemia in adult mice. Using male ICR-CD1 mice (6 weeks old; 18-37 g; Harlan), we provoked ischemia by introducing a filament from the common carotid artery into the internal carotid and advancing it into the arterial circle, thereby occluding the middle cerebral artery. We measured regional cerebral blood flow by laser Doppler flowmetry, with a probe fixed on the skull throughout the ischemia until 10 min after reperfusion. Rectal temperature was measured and maintained at 37° C. The mice were killed 48 h after reperfusion. Serial cryostat sections 20 μm thick were traced using a computer-microscope system equipped with the Neurolucida program (MicroBrightField) and the volumes of the ischemic area and of the whole brain were calculated (blinded) with the Neuroexplorer program. XG−102 0.3=0.3 mg/kg,XG−102 1=1 mg/kg, XG−102 5=5 mg/kg
The infarct volume sizes (mm^3) after bolus iv administration of placebo and XG-102 0.3, […] 6 hours after reperfusion (30 minutes clamp) in an adult mice model were as follows.

[7] = system: activated JNKs; experiment: c-Jun phosphorylation by activated JNKs pulled down with GST-Jun from UV-light irradiated HeLa cells or IL-1β treated βTC-3 cells; format: biochemical; details: peptide 25 μM for 20 minutes
Procedure: The effects of the L-TAT or inventive L-TAT-IB1(s) peptides on JNKs activated by stressful stimuli were evaluated using GST-Jun to pull down JNKs from UV-light irradiated HeLa cells or IL-1 β treated PTC cells. PTC cells were cultured as described above. HeLa cells were cultured in DMEM medium supplemented with 10% Fetal Calf Serum, 100 μg/mL Streptomycin, 100 units/ml Penicillin and 2 mM Glutamine. One hour prior to being used for cell extract preparation, PTC cells were activated with IL-1 β as described above, whereas HeLa cells were activated by UV-light (20 J/m^2). Cell extracts were prepared from control, UV-light irradiated HeLa cells and IL-1β treated βTC-3 cells by scraping the cell cultures in lysis buffer (20 mM Tris-acetate, 1 mM EGTA, 1% Triton X-100, 10 mM p-nitrophenyl-phosphate, 5 mM sodium pyrophosphate, 10 mMP-glycerophosphate, 1 mM dithiothreitol). Debris was removed by centrifugation for five minutes at 15,000 rpm in an SS-34 Beckman rotor. One-hundred μg extracts were incubated for one hour at room temperature with one μg GST-jun (amino acids 1-89) and 10 μL of glutathione-agarose beads (Sigma). Following four washes with the scraping buffer, the beads were resuspended in the same buffer supplemented with L-TAT or inventive L-TAT-IB1(s) peptides (25 μM) for 20 minutes. […]

[8] = system: recombinant JNK1, JNK2, or JNK3 kinases; experiment: Solid phase kinase assay, phosphorylation of c-Jun, ATF2 and Elk1 by recombinant JNKs; format: biochemical
Procedure: (§1) The effects of the peptides on JNKs-mediated phosphorylation of their target transcription factors were investigated in vitro. Recombinant and non activated JNK1, JNK2 and JNK3 were produced using a TRANSCRIPTION AND TRANSLATION rabbit reticulocyte lysate kit (Promega) and used in solid phase kinase assays with c-Jun, ATF2 and Elk1, either alone or fused to glutathione-S-transferase (GST), as substrates. Dose response studies were performed wherein inventive L-TAT or L-TAT-IB1(s) peptides (0-25 μM) were mixed with the recombinant JNK1, JNK2, or JNK3 kinases in reaction buffer (20 mM Tris-acetate, 1 mM EGTA, 10 mM p-nitrophenyl-phosphate (pNPP), 5 mM sodium pyrophosphate, 10 mM p-glycerophosphate, 1 mM dithiothreitol) for 20 minutes. The kinase reactions were then initiated by the addition of 10 mM MgCl2 and 5 pCi […] and 1 μg of either GST-Jun (aa 1-89), GST-AFT2 (aa 1-96) or GST-ELK1 (aa 307-428). GST-fusion proteins were purchased from Stratagene (La Jolla, Calif.).
Ten μL of glutathione-agarose beads were also added to the mixture. Reaction products were then separated by SDS-PAGE on a denaturing 10% polyacrylamide gel. Gels were dried and subsequently exposed to X-ray films (Kodak). […] The ability of D-TAT, inventive D-TAT-IB1(s) and inventive L-TAT-IB1(s) peptides (0-250 μM dosage study) to inhibit GST-Jun (aa 1-73) phosphorylation by recombinant JNK1, JNK2, and JNKS by were analyzed as described above. Overall, D-TAT-IB1(s) peptide decreased JNK-mediated phosphorylation of c-Jun, but at levels approximately 10-20 fold less efficiently than L-TAT-IB1(s).

[9] = target: T1, JNK3 (Homo sapiens, UniProt P53779); experiment: Solid phase kinase assay, JNK3 phosphorylation of Elk1; format: biochemical; details: dose response 0-25 μM, GST-ELK1 (aa 307-428)
T1 construct: host or cells: cell-free: rabbit reticulocyte lysate transcription/translation
T1 sequence (P53779 whole entry, species assumed, the tested form may be a part): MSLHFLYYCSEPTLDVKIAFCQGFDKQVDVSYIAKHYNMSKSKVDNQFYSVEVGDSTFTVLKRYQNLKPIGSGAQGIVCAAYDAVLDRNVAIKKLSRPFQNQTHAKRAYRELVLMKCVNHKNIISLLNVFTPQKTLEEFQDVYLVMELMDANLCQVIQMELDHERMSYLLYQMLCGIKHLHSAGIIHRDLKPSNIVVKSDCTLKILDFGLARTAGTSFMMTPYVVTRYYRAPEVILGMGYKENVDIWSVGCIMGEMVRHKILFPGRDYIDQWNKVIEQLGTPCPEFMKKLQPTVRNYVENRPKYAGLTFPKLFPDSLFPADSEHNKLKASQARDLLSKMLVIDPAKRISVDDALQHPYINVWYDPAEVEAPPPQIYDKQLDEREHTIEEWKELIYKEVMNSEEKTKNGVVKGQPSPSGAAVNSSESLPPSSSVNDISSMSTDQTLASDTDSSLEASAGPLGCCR
Procedure: as §1
Ten μL of glutathione-agarose beads were also added to the mixture. Reaction products were then separated by SDS-PAGE on a denaturing 10% polyacrylamide gel. […] The ability of D-TAT, inventive D-TAT-IB1(s) and inventive L-TAT-IB1(s) peptides (0-250 μM dosage study) to inhibit GST-Jun (aa 1-73) phosphorylation by recombinant JNK1, JNK2, and JNKS by were analyzed as described above. […]

[10] = system: JNK signaling; experiment: Heterologous GAL4 system (GAL-Jun / 5xGAL-LUC luciferase reporter) in HeLa cells with MKK4/MKK7 activation of JNK; format: cell-based; details: peptide 1 μM
Text: To determine whether the inventive cell-permeable peptides could block JNK signaling in vivo, we used a heterologous GAL4 system. HeLa cells, cultured as described above, were co-transfected with the 5×GAL-LUC reporter vector together with the GAL-Jun expression construct (Stratagene) comprising the activation domain of c-Jun (amino acids 1-89) linked to the GAL4 DNA-binding domain. Activation of JNK was achieved by the co-transfection of vectors expressing the directly upstream kinases MKK4 and MKK7 (see Whitmarsh et al., Science 285: 1578 (1999)). Briefly, 3×10^5 cells were transfected with the plasmids in 3.5-cm dishes using DOTAP (Boehringer Mannheim) following instructions from the manufacturer. For experiments involving GAL-Jun, 20 ng of the plasmid was transfected with 1 μg of the reporter plasmid pFR-Luc (Stratagene) and 0.5 μg of either MKK4 or MKK7 expressing plasmids. Three hours following transfection, cell media were changed and TAT and TAT-IB1(s) peptides (1 μM) were added. The luciferase activities were measured 16 hours later using the “Dual Reporter System” from Promega after normalization to protein content. […] Because HeLa cells express JNK1 and JNK2 isoforms but not JNK3, we transfected cells with JNK3.

NH2-GRKKRRQRRRPPRPKRPTTLNLFPQVPRSQD-COOH (H-GRKKRRQRRRPPRPKRPTTLNLFPQVPRSQD-OH) [L-TAT-IB1(s)]
formation of the AP-1 DNA binding complex [1]: decrease the formation of the AP-1 DNA binding complex in the presence of TNF-α | long term inhibition of IL-1β induced cell-death ([2]; one single addition 1 μM): but not inventive L-TAT-IB1 (s), was able to confer long term (15 day) protection | prevention of irradiation induced apoptosis [3]: able to prevent irradiation induced apoptosis

IPSPSVEEPHKHRPTTLRLTTLGAQDS (IPSPSVEEPHKHRPTTLRLTTLGAQDS) [1B2-long]
efficiency in binding JNK relative to c-Jun or ATF2 [4]: approximately 100 fold

PGTGCGDTYRPKRPTTLNLFPQVPRSQDT (PGTGCGDTYRPKRPTTLNLFPQVPRSQDT) [IB1-long]
efficiency in binding JNK relative to c-Jun or ATF2 [4]: approximately 100 fold

TDQSRPVQPFLNLTTPRKPRYTDPPRRRQRRKKRG (TDQSRPVQPFLNLTTPRKPRYTDPPRRRQRRKKRG) [D-TAT-IB1, reference compound]
inhibition of IL-1β induced apoptosis ([2]; one single addition 1 μM, IL-1 10 ng/ml, two days, n=5): decreased IL-1 induced apoptosis to a similar extent as L-TAT-IB peptides

NH2-RRRQRRKKRG-COOH (D-amino acids) [D-TAT, reference compound]
stability inside the cells [5]: extremely stable inside the cells

NH2-DQSRPVQPFLNLTTPRKPRPPRRRQRRKKRG-COOH (H-[dD][dQ][dS][dR][dP][dV][dQ][dP][dF][dL][dN][dL][dT][dT][dP][dR][dK][dP][dR][dP][dP][dR][dR][dR][dQ][dR][dR][dK][dK][dR]G-OH) [XG102]
infarct volume sizes, moyenne ([6]; 0.3 mg/kg bolus iv 6 hours after reperfusion (30 minutes clamp), n = 5, 48 h after reperfusion): 16 mm^3 | infarct volume sizes, moyenne ([6]; 1 mg/kg bolus iv 6 hours after reperfusion (30 minutes clamp), n = 1, 48 h after reperfusion): 16 mm^3 | infarct volume sizes, moyenne ([6]; XG102 3 group, bolus iv 6 hours after reperfusion (30 minutes clamp), n = 5, 48 h after reperfusion): 15 mm^3

NH2-GRKKRRQRRRPPRPKRPTTLNLFPQVPRSQD-COOH (H-GRKKRRQRRRPPRPKRPTTLNLFPQVPRSQD-OH) [TAT-IB(s)]
inhibition of IL-1 induced apoptosis ([2]; 1 μM, second addition at 24 hours, IL-1 10 ng/mL, two days): inhibited IL-1-induced apoptosis of βTC-3 cells | long term inhibition of IL-1 induced cell death ([2]; 12 days, peptide 1 μM added each day, IL-1β 10 ng/mL every 2 days): confers strong protection against apoptosis | long term inhibition of IL-1β induced cell-death ([2]; one single addition 1 μM, listed as TAT-IB 1): does not confer long-term protection | prevention of c-Jun phosphorylation by activated JNKs [7]: efficiently prevented phosphorylation of c-Jun by activated JNKs | inhibition of JNK family phosphorylation of target transcription factors, overall [8]: superior effects in inhibiting JNK family phosphorylation of their target transcription factors | peptide dose giving nearly complete inhibition of c-Jun, ATF2 and Elk1 phosphorylation by JNKs ([8]; dose response 0-25 μM, GST-Jun (aa 1-89), GST-AFT2 (aa 1-96), GST-ELK1 (aa 307-428)): ≥ 2.5 µM | inhibition of JNK3 phosphorylation of Elk1 [9]: absence of TAT-IB(s) inhibition of JNKS phosphorylation of Elk1 | activation of c-Jun (luciferase) in cells transfected with JNK3 ([10]; HeLa cells transfected with JNK3): inhibited JNK2 mediated activation of c-Jun | activation of c-Jun (luciferase) following MKK4 and MKK7 mediated activation of JNK ([10]; luciferase 16 hours later): blocked activation of c-Jun following MKK4 and MKK7 mediated activation of JNK

Source: patent US8080517B2, “Cell-permeable peptide inhibitors of the JNK signal transduction pathway” (Xigen SA, priority 2005, dated 2011)
